The record followed here is US4443619A, “Chlorocitric acids” (Hoffmann-La Roche Inc., priority 1981, dated 1984).

Test [1] can be described thus: Comparative anorectic activity: food consumption in meal-fed rats (acute, Example 13). Format: in vivo, Charles River female rats. As to conditions: 3 hr meal, mean ± S.E. How it is done: Charles River female rats (Charles River Breeding Laboratories, Wilmington, Mass.), weighing 150 to 175 g, were individually housed in wire-bottomed cages in a temperature-regulated (22° C.) light-controlled room (12 hr light, 6 a.m. to 6 p.m. and 12 hr dark, 6 p.m. to 6 a.m.). Animals were fasted 48 hr, then meal-fed the 70% glucose diet described by A. C. Sullivan, et al., J. Nutrition, 101, 265 (1971) from 8 to 11 a.m. Following 5 to 13 days alimentation on the meal-feeding regimen, rats were dosed with the appropriate compounds orally by intubation 1/2 hr before the 3 hr meal. Food cups were weighed immediately after the meal. The control group consists of 31 rats while each drug treated group consists of 5 to 12 rats.
The G-70 diet consisted of 70% glucose, 23% vitamin-free casein, 5% Phillips and Hart salt mixture IV, 1% corn oil, 1% complete vitamin mixture, and 40 g/kg cellulose. To ensure complete uniformity, all diets were mixed with a twen-shell dry blender equipped with an itensifier bar (Patterson-Kelly Co., East Stroudsburg, Pa.).

For another test, the system named is Stomach Emptying. Kind of test: Effect on stomach emptying ([14C]glucose load) in rats (Example 25). As to conditions: 0.33 mmoles/kg oral, 60 min after [14C]glucose load, mean ± S.E. Format: in vivo. The procedure: Rats were trained to consume a 3 hr 70% glucose meal from 8 a.m. to 11 a.m. daily. On the experimental day, compounds were administered orally by intubation 30 min before a [^14 C]glucose load was given also by intubation. […] Sixty minutes later the rats were killed by decapitation; blood and stomachs were collected on ice.
Data are expressed as follows: dpm×10^3 per ml of serum and dpm×10^3 per stomach.

Another test relates to Fatty Acid Synthesis. Kind of test: Fatty acid synthesis in pair-feeding experiments in rats (Example 24). Format: in vivo, female rats of the Charles River CD strain. As to conditions: 2.63 mmoles/kg. The procedure: Female rats of the Charles River CD strain (Charles River Breeding Laboratories, Wilmington, Mass.) weighing 120-160 g (ca. […] old) were housed individually in wire-bottomed cages in a temperature-regulated (22 C.), light-controlled room (12 hour light 6 A.M.-6 P.M., and dark 6 P.M.-6 A.M.). They had free access to water and were fed a commercial diet (Purina Rodent Chow, Ralston Purina Co., St. Louis, Mo.) ad libitum for at least 1 week prior to the experiment. Animals were fasted 48 hours, then meal-fed a synthetic diet (G-70) daily from 8-11 A.M. for the remainder of the experiment. Food consumption and body weight were measured during the meal-feeding period. […] Food spillage was measured daily.
Each group consisted of 8 to 10 (140 to 160 g) rats. Food intake was monitored for a 3 day period; the animals were dosed immediately before the 3 hr meal. Pair-fed animals were fed the amount of food which the drug treated groups ate on the previous days (days 2 and 3).
Immediately after the 3 hour feeding period, rats were administered intravenously a 0.25 ml saline (pH 7.4 to 7.6) solution with the following composition: 12.3 mg alanine, 5 μCi [^14 C] alanine (specific activity=156 mCi/mmole), 30.6 mg-ketoglutarate (as an amine acceptor for transaminase) and 1 mCi [^3 H] water (specific activity=100 mCi/g). […] [^3 H] Water was employed to determine the total rate of lipogenesis, since tritium is incorporated into fatty acids independent of the source of carbon precursors. Animals were killed by decapitation and blood collected in centrifuge tubes 30 minutes after the radioactive pulse, unless otherwise indicated. The specific radioactivity of the body water of each rat was determined by counting a diluted serum aliquot in 10 ml following cocktail: toluene (2.41), 2-methoxyethanol (1.61), naphthalene (320 g), and BBOT (2,5-bis-2-(5-tert-butylbenzoxazolyl)-thiophene, 16 g). Liver, and small intestine was excised rapidly, weighed, and homogenized in 15 ml H2 O in a Virtis 45 Macro Homogenizer for 15 sec at ca. 30,000 rpm. Duplicate 3 ml aliquots of whole homogenates were saponified, extracted, and the absolute radioactivity (dpm) determined. Liver lipids were extracted totally or separated into fatty acids and cholesterol by anion exchange chromatography. It was determined by anion exchange chromatography that the total lipid extract of liver contained fatty acids (96-97%) and cholesterol (3-4%). Data are expressed as nmoles [^14 C] alanine or μ moles [^3 H] water converted into lipid/g tissue/30 minutes. The nmoles [^14 C] alanine were calculated according to the injected load of alanine, as reported previously by A. C. Sullivan et al., Arch. Biochem. and Biophys., 150, 183 (1972). The μ moles [^3 H] water were determined as described previously by A. C. […]

Regarding `O=C(O)C[C@@](O)(C(=O)O)[C@H](O)C(=O)O` [Trisodium (-)-threo-hydroxycitrate, reference compound], the Food consumption in test [1] (0.33 mmoles/kg oral) is on record as 11.5 ± 0.7 g; in test [1] (0.66 mmoles/kg oral), 9.0 ± 0.6 g; in test [1] (1.32 mmoles/kg oral), 9.9 ± 1.0 g; in test [1] (2.63 mmoles/kg oral), 8.9 ± 0.8 g. Further, the “Serum, total per ml” value in the test with Stomach Emptying is on record as 4.5 ± 0.3 dpm × 10^3. Besides, the “Stomach Contents, total per stomach” value with Stomach Emptying was 1973 ± 154 dpm × 10^3. In the test on Fatty Acid Synthesis (pair-fed control 21.3 ± 2.3), the “Fatty Acid Synthesis, 3H2O converted” value is 14.4 ± 1.6 μmoles ^3 H2 O converted/g liv. In addition, in the test on Fatty Acid Synthesis (pair-fed control 714 ± 86), the “Fatty Acid Synthesis, [14C]alanine converted” value was 279 ± 36 nmoles [^14 C]alanine converte.
